Earlier results on two compounds are cited in patent US8420593B1, “Compositions and methods for regulating membrane potential” (priority 2006, dated 2013).

Where a name gives a salt, the structure may show the parent alone. Read-outs that look alike come from different tables or passages of the source.

Data set [1] relates to spinal cord injury.
For data set [2], the system named is potassium currents in PC12 cells.
The test system of data set [3] is spinal cord injury. Conditions: days 25, 26 and 27.
For data set [4], the system named is chronic spinal cord injury. Conditions: in vivo.

Regarding `CCCN(c1ccncc1F)n1cc(C)c2ccccc21` [HP184, N-[N-propyl]-N-[3-fluoro-4-pyridinyl]-1H-3-methylindole-1-amine hydrochloride], in the data set on spinal cord injury [1] (3 mg/kg, po, long-standing (35 day post injury) injury, moderate intensity), the “motor function (open field walking)” value is on record as “significantly improved motor function”. In addition, the “improvement in walking ability, multiple dose studies” value in the data set with spinal cord injury [1] (once a day oral dosing at 3, 1 and 0.3 mg/kg, moderately injured rats, compression model) is on record as “confirmed the effectiveness”. The “activity on potassium currents” value in data set [2] was “voltage dependent blocker of potassium currents”. Moreover, the “activity on sodium channels” value in the data set with sodium channels was “use- and frequency dependent blocker of sodium channels”. Also, the “motor function (open field walking analysis)” value in the data set on spinal cord injury [3] (3, 10 and 20 mg/kg, po, established (25 day post injury) injury, mild intensity) was “significantly improved motor function”.
With `Nc1ccncc1` [4-AP, 4-aminopyridine], in data set [4], the “side effects associated with central nervous system activation” value is “restlessness, confusion, and infrequently reported findings of generalized tonic-clonic seizure”. The “motor function (open field walking analysis)” value in the data set with spinal cord injury [3] (0.6 mg/kg, ip, compared with HP184) is listed as “This improvement was equaled by the improvement observed with 4-AP”.
